Usually IC50 stands for the midpoint of a concentration-inhibition curve.

The target of one experiment is T1, Human IDO1 (Homo sapiens, UniProt P14902).
T1 construct: expressed in transfected cells; host or cells: HEK293
T1 sequence (P14902 whole entry): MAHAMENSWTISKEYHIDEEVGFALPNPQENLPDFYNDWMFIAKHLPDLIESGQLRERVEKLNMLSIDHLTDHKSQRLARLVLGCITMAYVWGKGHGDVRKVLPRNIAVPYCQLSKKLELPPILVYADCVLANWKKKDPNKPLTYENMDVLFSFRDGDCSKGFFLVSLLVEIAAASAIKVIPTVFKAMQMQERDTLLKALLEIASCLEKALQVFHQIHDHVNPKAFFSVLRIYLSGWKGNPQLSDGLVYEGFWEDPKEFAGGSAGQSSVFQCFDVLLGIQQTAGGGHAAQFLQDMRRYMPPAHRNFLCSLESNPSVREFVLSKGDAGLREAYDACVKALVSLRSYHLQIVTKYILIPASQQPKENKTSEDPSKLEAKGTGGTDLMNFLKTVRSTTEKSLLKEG
As to the kind of experiment: IDO Kynurenine Assay with Human IDO1/HEK293 Cells. Format: cell-based. The note with it: 20 hours incubation, kynurenine absorbance at 490 nm, read-out: HEK human IDO-1 (IC50). The method, then: IDO Kynurenine Assay with Human IDO1/HEK293 Cells
Human IDO1/HEK293 cells were seeded at 10,000 cells per 50 uL per well with RPMI/phenol red free media contains 10% FBS in a 384-well black wall clear bottom tissue culture plate (Matrix Technologies LLC) 125 nL of certain concentration of compound was then added to each well using ECHO liquid handling systems. The cells were incubated for 20 hours in 37° C. incubator with 5% CO2.
The compound treatments were stopped by adding Trichloroacetic Acid (Sigma-Aldrich) to a final concentration at 0.2%. The cell plate was further incubated at 50° C. for 30 minute. The equal volume supernatant (20 uL) and 0.2% (w/v) Ehrlich reagent (4-dimethylaminobenzaldehyde, Sigma-Aldrich) in glacial acetic acid were mixed in a new clear bottom 384-well plate. This plate was then incubated at room temperature for 30 minute. The absorbance at 490 nm was measured on Envision plate reader.
Compound IC50 values were calculated using the counts of 500 nM of a reference standard treatment as one hundred percent inhibition, and counts of no compound but DMSO treatment as zero percent inhibition.
Turning to `CC(C)CN(CCOC(C)C)c1ccc(-c2ccccc2-c2nnn[nH]2)cc1NC(=O)Cc1ccc(C#N)cc1` [Example 69], the IC50 worked out at 170 nM.

With `Cc1ccc(CC(=O)Nc2cc(-c3ccccc3-c3nnn[nH]3)cc(F)c2N(CC(C)C)C2CCCCC2)cc1` [Example 58], the IC50 is 10 nM.

`CCC(CC)N(CC(C)C)c1ccc(-c2ccccc2C(=O)O)cc1NC(=O)Cc1ccc(C)cc1` [Example 62]: the IC50 was found to be 20 nM.

Take `CC(C)CN(CC(C)C)c1ccc(-c2ccccc2-c2nnn[nH]2)cc1NC(=O)Cc1ccc(I)cc1` [Example 49, N-(4-(diisobutylamino)-2′-(1H-tetrazol-5-yl)-[1,1′-biphenyl]-3-yl)-2-(4-iodophenyl)acetamide]: the IC50 is 3.17 nM.

As for `CC(C)CN(CC(C)C)c1ccc(-c2ccccc2-c2nnn[nH]2)cc1NC(=O)Cc1ccncc1` [Example 57], the IC50 turned out to be 360 nM.

Regarding `Cc1cc(CC(=O)Nc2cc(-c3cc(F)ccc3C(=O)O)ccc2N(CC(C)C)C2CCCCC2)on1` [Example 77], the IC50 was 300 nM.

For the compound `Cc1ccc(CC(=O)Nc2cc(-c3cc(F)ccc3C(=O)O)cc(F)c2N(CC(C)C)C2CCCCC2)cc1` [Example 60], the IC50 turned out to be 30 nM.

As to `CC(C)CN(CCOC(C)C)c1ccc(-c2cc(F)ccc2C(=O)O)cc1NC(=O)Cc1ccc(C#N)cc1` [Example 70], the IC50 stood at 2930 nM.

As to `CC(C)CN(CC(C)C)c1ccc(-c2ccccc2-c2nnn[nH]2)cc1NC(=O)Cc1cccs1` [Example 65], the IC50 amounted to 20 nM.

Consider `CC(C)CN(CC(C)C)c1ccc(-c2ccccc2-c2nnn[nH]2)cc1NC(=O)Cc1ccc(Cl)nc1` [Example 67], for which the 50% inhibitory concentration (IC50) is 20 nM.

For the compound `CC(C)CN(c1cc(F)c(-c2ccccc2-c2nnn[nH]2)cc1NC(=O)Cc1ccc(C#N)cc1)C1CCCCC1` [Example 85], the IC50 came out at 40 nM.

Consider `CCC(CC)N(CC(C)C)c1ccc(-c2ccccc2-c2nnn[nH]2)cc1NC(=O)Cc1ccc(C)cc1` [Example 63], for which the concentration for half-maximal inhibition (IC50) came to 4.37 nM.

On to `Cc1cc(CC(=O)Nc2cc(-c3cc(F)ccc3C(=O)O)c(F)cc2N(CC(C)C)C2CCCCC2)on1` [Example 87], for which the half-maximal inhibitory concentration (IC50) came out at 140 nM.

Turning to `Cc1ccc(CC(=O)Nc2cc(-c3ccccc3C(=O)O)cc(F)c2N(CC(C)C)C2CCCCC2)cc1` [Example 59], the IC50 was determined as 80 nM.

In the case of `N#Cc1ccc(CC(=O)Nc2cc(-c3ccccc3-c3nnn[nH]3)ccc2N(CCCC(F)(F)F)C2CCCCC2)cc1` [Example 71], the IC50 was determined as 270 nM.

For `Cc1ccc(CC(=O)Nc2cc(-c3ccccc3-c3nnn[nH]3)ccc2N(Cc2ccccc2)CC(C)C)cc1` [Example 74], the IC50 was 10 nM.

With `CC(C)CN(CC(C)C)c1ccc(-c2ccccc2-c2nnn[nH]2)cc1NC(=O)Cc1ccc(F)cc1` [Example 12, N-(4-(diisobutylamino)-2′-(1H-tetrazol-5-yl)biphenyl-3-yl)-2-(4-fluorophenyl)acetamide], the IC50 was 2.99 nM.

As to `CC(C)CN(CC(C)C)c1ccc(-c2ccccc2-c2nnn[nH]2)cc1NC(=O)Cc1ccsc1` [Example 66], the IC50 is 20 nM.

Turning to `O=C(Cc1ccccc1C(F)(F)F)Nc1cc(-c2ccccc2-c2nnn[nH]2)ccc1N1CC2CC1CN2Cc1ccccc1` (centres unmarked) [Example 81], the IC50 was found to be 110 nM.

With `N#Cc1ccc(CC(=O)Nc2cc(-c3ccccc3C(=O)O)ccc2N(CCCC(F)(F)F)C2CCCCC2)cc1` [Example 73], the IC50 was 2110 nM.

`CC(C)CN(c1cc(F)c(-c2ccccc2C(=O)O)cc1NC(=O)Cc1ccc(C#N)cc1)C1CCCCC1` [Example 84]: the IC50 came out at 30 nM.

For the compound `CC(C)CN(CC(C)C)c1ccc(-c2ccccc2-c2nnn[nH]2)cc1NC(=O)Cc1cc(Br)cs1` [Example 64], the IC50 came to 40 nM.

In the case of `Cc1ccc(CC(=O)Nc2cc(-c3ccccc3-c3nnn[nH]3)ccc2N(CC(C)C)CC(C)C)cn1` [Example 55], the concentration for half-maximal inhibition (IC50) is 120 nM.

As for `N#Cc1ccc(CC(=O)Nc2cc(-c3cc(F)ccc3C(=O)O)ccc2N(CCCC(F)(F)F)C2CCCCC2)cc1` [Example 72], the IC50 was found to be 1860 nM.

With `CC(C)CN(CCOC(C)C)c1ccc(-c2ccccc2C(=O)O)cc1NC(=O)Cc1ccc(C#N)cc1` [Example 68], the 50% inhibitory concentration (IC50) came out at 4810 nM.

With `CCC(CC)N(CC(C)C)c1ccc(-c2cc(F)ccc2C(=O)O)cc1NC(=O)Cc1ccc(C)cc1` [Example 61], the IC50 was 20 nM.

As for `COC(C)(C)CCN(c1ccc(-c2ccccc2-c2nnn[nH]2)cc1NC(=O)Cc1ccc(C)nc1)C1CCCCC1` [Example 56], the IC50 stood at 7440 nM.

The next experiment deals with T2, IDO (IFNγ-treated Hela cells) (Homo sapiens, UniProt P14902).
T2 construct: endogenous in cells; host or cells: Hela cells treated with IFNγ (10 ng/ml)
T2 sequence (P14902 whole entry): as above
As to the kind of experiment: IDO Kynurenine Assay with Hela Cells. Format: cell-based. The note with it: IFNγ 10 ng/ml, 20 hours incubation, kynurenine absorbance at 490 nm, read-out: Hela Cells LLE_IDO_ABS_DR (IC50). The method, then:
IDO Kynurenine Assay with Hela Cells
Hela cells were seeded at 30,000 cells per well in 40 ul RPMI/phenol red free media contains 10% FBS in a 384-well black wall clear bottom tissue culture plate (Matrix Technologies LLC). 270 nl of certain concentration of compound was then added to each well using ECHO liquid handling systems. 40 ul of IFNγ (R&D, 285-IF-100) at final concentration of 10 ng/ml was then added to column 2-24 with media to column 1 as control. The cells were incubated for 20 hours in 37° C. incubator with 5% CO2.
The compound treatments were stopped by adding trichloroacetic acid (Sigma-Aldrich) to a final concentration at 0.2%. The cell plate was further incubated at 50° C. for 30 minute. The equal volume supernatant (20 uL) and 0.2% (w/v) Ehrlich reagent (4-dimethylaminobenzaldehyde, Sigma-Aldrich) in glacial acetic acid were mixed in a new clear bottom 384-well plate. This plate was then incubated at room temperature for 30 minute. The absorbance at 490 nm was measured on Envision plate reader.
Compound IC50 values were calculated using the counts of no IFNγ control as one hundred percent inhibition, and counts of no compound but DMSO treatment as zero percent inhibition.
Take `Cc1ccc(CC(=O)Nc2cc(-c3ccccc3-c3nnn[nH]3)ccc2N(Cc2ccccc2)CC(C)C)cc1` [Example 74]: the IC50 stood at 3.06 nM.

On to `CC(C)CN(CC(C)C)c1ccc(-c2ccccc2-c2nnn[nH]2)cc1NC(=O)Cc1ccc(F)cc1` [Example 12, N-(4-(diisobutylamino)-2′-(1H-tetrazol-5-yl)biphenyl-3-yl)-2-(4-fluorophenyl)acetamide], for which the 50% inhibitory concentration (IC50) is 10 nM.

As to `O=C(Cc1ccccc1C(F)(F)F)Nc1cc(-c2ccccc2-c2nnn[nH]2)ccc1N1CC2CC1CN2Cc1ccccc1` (centres unmarked) [Example 81], the IC50 turned out to be 100 nM.

In the case of `CC(C)CN(CC(C)C)c1ccc(-c2ccccc2-c2nnn[nH]2)cc1NC(=O)Cc1ccc(OC(F)(F)F)cc1` [Example 15, N-(4-(diisobutylamino)-2′-(1H-tetrazol-5-yl)biphenyl-3-yl)-2-(4-(trifluoromethoxy)phenyl)acetamide], the IC50 came out at 90 nM.

As to `CC(C)CN(c1ccc(-c2cc(F)ccc2C(=O)O)cc1NC(=O)Cc1ccccc1F)C1CCCCC1` [Example 6, 4′-(cyclohexyl(isobutyl)amino)-5-fluoro-3′-(2-(2-fluorophenyl)acetamido) biphenyl-2-carboxylic acid], the concentration for half-maximal inhibition (IC50) is 50 nM.

`CC(C)CN(CC(C)C)c1ccc(-c2ccccc2-c2nnn[nH]2)cc1NC(=O)Cc1ccc2c(c1)OCO2` [Example 14, 2-(benzo[d][1,3]dioxol-5-yl)-N-(4-(diisobutylamino)-2′-(1H-tetrazol-5-yl)biphenyl-3-yl)acetamide]: the IC50 stood at 20 nM.

For the compound `Cc1ccc(CC(=O)Nc2cc(-c3ccccc3-c3nnn[nH]3)ccc2N(CC(C)C)CC(C)C)cc1` [Example 2, N-(4-(Diisobutylamino)-2′-(1H-tetrazol-5-yl)biphenyl-3-yl)-2-p-tolylacetamide], the IC50 is 5.02 nM.

Take `CC(C)CN(CC(C)C)c1ccc(-c2ccccc2-c2nnn[nH]2)cc1NC(=O)Cc1cccc(F)c1F` [Example 39]: the IC50 was 50 nM.

For the compound `CC(C)CN(CC(C)C)c1ccc(-c2ccccc2-c2nnn[nH]2)cc1NC(=O)Cc1ccccc1C(F)(F)F` [Example 26], the concentration for half-maximal inhibition (IC50) worked out at 50 nM.

On to `CCCCN(c1ccc(-c2ccccc2-c2nnn[nH]2)cc1NC(=O)Cc1ccccc1F)C1CCCCC1` [Example 10, N-(4-(butyl(cyclohexyl)amino)-2′-(1H-tetrazol-5-yl)-[1,1′-biphenyl]-3-yl)-2-(2-fluorophenyl) acetamide], for which the IC50 was found to be 7.09 nM.

As for `CC(C)CN(CC(C)C)c1ccc(-c2ccccc2-c2nnn[nH]2)cc1NC(=O)Cc1ccc(O)cc1` [Example 28], the IC50 turned out to be 90 nM.

With `CC(C)CN(c1ccc(-c2ccccc2C(=O)O)cc1NC(=O)Cc1ccccc1F)C1CCCCC1` [Example 5, 4′-(cyclohexyl(isobutyl)amino)-3′-(2-(2-fluorophenyl)acetamido) biphenyl-2-carboxylic acid], the IC50 worked out at 40 nM.

Take `CC(C)CN(Cc1ccccc1)c1ccc(-c2ccccc2-c2nnn[nH]2)cc1NC(=O)[C@H](O)c1ccccc1` [Example 48, (R)—N-(4-(Benzyl(isobutyl)amino)-2′-(1H-tetrazol-5-yl)biphenyl-3-yl)-2-hydroxy-2-phenylacetamide]: the IC50 amounted to 1610 nM.

As to `CC(C)CN(CC(C)C)c1ccc(-c2ccccc2-c2nnn[nH]2)cc1NC(=O)Cc1ccc(Cl)cc1` [Example 17, 2-(4-chlorophenyl)-N-(4-(diisobutylamino)-2′-(1H-tetrazol-5-yl)biphenyl-3-yl)acetamide], the IC50 turned out to be 4.42 nM.

`CC(C)CN(c1ccc(-c2ccccc2C(=O)O)cc1NC(=O)Cc1ccccc1C(F)(F)F)C1CCCCC1` [Example 8, 4′-(cyclohexyl(isobutyl)amino)-3′-(2-(2-(trifluoromethyl)phenyl)acetamido)biphenyl-2-carboxylic acid]: the IC50 is 940 nM.

On to `Cc1ccc(CC(=O)Nc2cc(-c3ccccc3-c3nnn[nH]3)ccc2N2C[C@H](C)C[C@H](C)C2)cc1` [Example 21, N-(4-(cis-3,5-Dimethylpiperidin-1-yl)-2′-(1H-tetrazol-5-yl)-[1,1′-biphenyl]-3-yl)-2-(p-tolyl)acetamide], for which the IC50 came to 520 nM.

`CC(C)CN(c1ccc(-c2ccccc2-c2nnn[nH]2)cc1NC(=O)Cc1ccccc1C(F)(F)F)C1CCCCC1` [Example 7, N-(4-(cyclohexyl(isobutyl)amino)-2′-(1H-tetrazol-5-yl)biphenyl-3-yl)-2-(2-(trifluoromethyl)phenyl)acetamide]: the concentration for half-maximal inhibition (IC50) worked out at 130 nM.

The record behind these values is patent publication US9895330B2, “IDO inhibitors” (BRISTOL-MYERS SQUIBB COMPANY, priority 2013, dated 2018).
